Test results from the supplement of paper PMC6335503.
± gives the standard deviation of the averaged measurements.

What was measured:
Assay in all cases: cell viability, percent of DMSO control (CellTiter-Glo); higher = more viable cells
Conditions in all cases: 72 h
[1] = tested on: DFTD cell line T3 (06/0368)
Description: (§1)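 Eight-point dose titration of 41 screen hits in triplicate wells on four Tasmanian devil DFTD tumour cell lines (T1-T4) and devil fibroblasts, 384-well plates. Viability was read by CellTiter-Glo (ATP) after 72 h at 37 °C. Percent of control per plate: DMSO wells = 100%, positive-control wells = 0%.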

[2] = tested on: DFTD cell line T1 (06/2887)
Description: as §1

[3] = tested on: DFTD cell line T4 (07/0192)
Description: as §1

[4] = tested on: DFTD cell line T2 (05/2569)
Description: as §1

| SMILES | cell viability ([1]; 0.00617 µM) [%] | cell viability ([1]; 0.0185 µM) [%] | cell viability ([1]; 0.0556 µM) [%] | cell viability ([1]; 0.166667 µM) [%] | cell viability ([1]; 0.5 µM) [%] | cell viability ([1]; 1.5 µM) [%] | cell viability ([1]; 4.5 µM) [%] | cell viability ([1]; 13.5 µM) [%] | cell viability ([2]; 0.00617 µM) [%] | cell viability ([2]; 0.0185 µM) [%] | cell viability ([2]; 0.0556 µM) [%] | cell viability ([2]; 0.166667 µM) [%] | cell viability ([2]; 0.5 µM) [%] | cell viability ([2]; 1.5 µM) [%] | cell viability ([2]; 4.5 µM) [%] | cell viability ([2]; 13.5 µM) [%] | cell viability ([3]; 0.00617 µM) [%] | cell viability ([3]; 0.0185 µM) [%] | cell viability ([3]; 0.0556 µM) [%] | cell viability ([3]; 0.166667 µM) [%] | cell viability ([3]; 0.5 µM) [%] | cell viability ([3]; 1.5 µM) [%] | cell viability ([3]; 4.5 µM) [%] | cell viability ([3]; 13.5 µM) [%] | cell viability ([4]; 0.00617 µM) [%] | cell viability ([4]; 0.0185 µM) [%] | cell viability ([4]; 0.0556 µM) [%] | cell viability ([4]; 0.166667 µM) [%] | cell viability ([4]; 0.5 µM) [%] | cell viability ([4]; 1.5 µM) [%] | cell viability ([4]; 4.5 µM) [%] | cell viability ([4]; 13.5 µM) [%] |
| --- | --- | --- | --- | --- | --- | --- | --- | --- | --- | --- | --- | --- | --- | --- | --- | --- | --- | --- | --- | --- | --- | --- | --- | --- | --- | --- | --- | --- | --- | --- | --- | --- |
| Cn1nc(-c2ccccn2)nc2c(=O)n(C)c(=O)nc1-2 | 117 ± 31 | 94.9 ± 27 | 119 ± 9.9 | 126 ± 16 | 107 ± 26 | 72.9 ± 4.2 | -7.67 ± 4 | -1.39 ± 4.7 | 153 ± 34 | 70.2 ± 59 | 125 ± 22 | 132 ± 5 | 135 ± 44 | 81.7 ± 2.8 | -6.25 ± 9.7 | 0.0591 ± 4.2 | 141 ± 24 | 92.9 ± 34 | 114 ± 12 | 109 ± 11 | 118 ± 31 | 74.2 ± 14 | -7.19 ± 8.8 | 0.999 ± 4.1 | 135 ± 19 | 102 ± 31 | 104 ± 19 | 124 ± 18 | 132 ± 42 | 84.5 ± 6.9 | -4.38 ± 1.7 | -0.281 ± 3.3 |
| C=CC(=O)N1CCC[C@@H](n2nc(-c3ccc(Oc4ccccc4)cc3)c3c(N)ncnc32)C1 | 120 ± 38 | 94.2 ± 29 | 95.2 ± 22 | 65.1 ± 9.7 | 38.9 ± 6.9 | 36.7 ± 11 | 34.5 ± 8.3 | 24.5 ± 11 | 112 ± 37 | 123 ± 32 | 71.6 ± 14 | 37.3 ± 6.5 | 26.6 ± 4.3 | 23.2 ± 11 | 28.6 ± 13 | 14 ± 10 | 114 ± 25 | 85 ± 27 | 79.7 ± 14 | 51.3 ± 9.8 | 22.6 ± 4.5 | 20.4 ± 12 | 21.4 ± 8.5 | 12.3 ± 8.3 | 103 ± 33 | 124 ± 36 | 83.4 ± 14 | 51.2 ± 12 | 32.3 ± 1.1 | 29.5 ± 6.4 | 30 ± 9.6 | 17.3 ± 12 |
| O=c1c(=NNc2nnn[nH]2)c(=O)c2ccccc12 | 123 ± 33 | 108 ± 57 | 105 ± 18 | 110 ± 22 | 99.8 ± 8.1 | -0.871 ± 9.3 | -0.369 ± 11 | -6.58 ± 12 | 111 ± 30 | 134 ± 16 | 108 ± 24 | 109 ± 13 | 100 ± 8.9 | 6.85 ± 14 | -3.59 ± 8.9 | -9.34 ± 11 | 112 ± 34 | 109 ± 63 | 107 ± 15 | 113 ± 5.9 | 99.9 ± 11 | -4.87 ± 8 | -0.683 ± 8.2 | -9.39 ± 10 | 114 ± 14 | 133 ± 22 | 102 ± 25 | 96.4 ± 15 | 89.2 ± 11 | 1.91 ± 9.7 | -2.74 ± 7.9 | -6.89 ± 10 |
| CCN1CCN(Cc2ccc(-c3cc4c(N[C@H](C)c5ccccc5)ncnc4[nH]3)cc2)CC1 [AEE788] | 93.5 ± 15 | 110 ± 21 | 123 ± 27 | 77.2 ± 11 | 49.8 ± 13 | 34.2 ± 11 | 36.4 ± 13 | 28.6 ± 4.9 | 77.9 ± 22 | 87.5 ± 17 | 119 ± 44 | 61.2 ± 11 | 35.4 ± 11 | 23.9 ± 7.3 | 29.4 ± 13 | 17.5 ± 3.5 | 99.1 ± 11 | 90 ± 14 | 104 ± 35 | 83.8 ± 10 | 43.4 ± 4.7 | 25.1 ± 11 | 24.8 ± 12 | 23.4 ± 5.6 | 77.9 ± 14 | 96 ± 16 | 123 ± 38 | 85.2 ± 15 | 46.3 ± 12 | 25.8 ± 7.8 | 21 ± 7 | 6.37 ± 3.9 |
| COc1cc2ncnc(Nc3cccc(Cl)c3)c2cc1OC [AG-1478] | 125 ± 31 | 105 ± 3.8 | 103 ± 18 | 117 ± 16 | 83.2 ± 17 | 63.5 ± 11 | 53.2 ± 13 | 46.9 ± 9.5 | 117 ± 7.2 | 115 ± 7.9 | 106 ± 36 | 109 ± 19 | 54.7 ± 7.8 | 39.2 ± 9.1 | 32.7 ± 11 | 28.9 ± 9.3 | 119 ± 21 | 110 ± 20 | 104 ± 24 | 128 ± 18 | 89.3 ± 22 | 68.1 ± 18 | 38 ± 7 | 32.3 ± 11 | 99.4 ± 20 | 105 ± 21 | 108 ± 13 | 114 ± 12 | 81 ± 12 | 49.2 ± 11 | 40.2 ± 16 | 34 ± 5.2 |
| COc1cc2ncnc(Nc3cccc(Cl)c3F)c2cc1OC(=O)N1CCN(C)C[C@H]1C [AZD3759] | 96.2 ± 18 | 89.5 ± 4.7 | 122 ± 15 | 107 ± 34 | 76.4 ± 20 | 52.8 ± 6.2 | 37.7 ± 7 | 41.7 ± 7.3 | 96.9 ± 29 | 110 ± 19 | 113 ± 33 | 95.3 ± 21 | 59.1 ± 10 | 38.1 ± 7.5 | 22.6 ± 2.7 | 31.5 ± 6.1 | 102 ± 12 | 96.5 ± 23 | 111 ± 24 | 109 ± 10 | 78.4 ± 14 | 55 ± 5.2 | 28.7 ± 6.5 | 25 ± 3.8 | 97.6 ± 42 | 107 ± 12 | 131 ± 45 | 121 ± 35 | 81.8 ± 18 | 48.9 ± 4.4 | 22.9 ± 7.3 | 32 ± 4.3 |
| CNC(=O)CN1CCC(Oc2cc3c(Nc4cccc(Cl)c4F)ncnc3cc2OC)CC1 [AZD8931 (Sapitinib)] | 112 ± 38 | 95.2 ± 19 | 102 ± 44 | 55.9 ± 17 | 43.4 ± 17 | 29 ± 7.6 | 24.9 ± 10 | 32.6 ± 2.4 | 116 ± 38 | 104 ± 20 | 84 ± 28 | 37.9 ± 12 | 24.9 ± 7.9 | 22.8 ± 14 | 19.1 ± 16 | 21.6 ± 6.3 | 107 ± 17 | 111 ± 31 | 80.8 ± 34 | 59.7 ± 10 | 31.9 ± 5 | 20.9 ± 16 | 14 ± 10 | 8.86 ± 12 | 123 ± 62 | 111 ± 22 | 98.5 ± 55 | 62.1 ± 16 | 46.5 ± 18 | 27 ± 13 | 19.7 ± 17 | 24.2 ± 2.2 |
